The target in experiment [1] is T1, NLRP3 (Homo sapiens, UniProt Q96P20). Nature of the experiment: Human whole blood IL1β release assay. Type of experiment: cell-based. Details: Plate out 80 μl of whole blood containing 1 μg/ml of LPS; from tissue; host or cells: human whole blood from healthy donors, LPS-primed, nigericin-stimulated. Particulars: LPS 1 μg/ml, nigericin 10 μM, IL-1β AlphaLisa, read-out: HWB IC50. How it is done:
Human Whole Blood IL1β Release Assay
For systemic delivery, the ability to inhibit NLRP3 when the compounds are present within the bloodstream is of great importance. For this reason, the NLRP3 inhibitory activity of a number of compounds in human whole blood was investigated in accordance with the following protocol.
Human whole blood in Li-heparin tubes was obtained from healthy donors from a volunteer donor panel. • 1. Plate out 80 μl of whole blood containing 1 μg/ml of LPS in 96-well, clear bottom cell culture plate (Corning #3585) • 2. Add 10 μl compound (8 points half-log dilution with 10 μM top dose) or vehicle (DMSO 0.1% FAC) to the appropriate wells • 3. Incubate for 3 hrs at 37° C. 5% CO2 • 4. Add 10 μl Nigericin (Sigma #N7143) (10 μM FAC) to all wells • 5. Incubate for 1 hr at 37° C. 5% CO2 • 6. At the end of the incubation period, spin plates at 300×g for 5 mins to pellet cells and remove 20 μl of supernatant and add to 96-well v-bottom plates for IL-1β analysis (note: these plates containing the supernatants can be stored at −80° C. to be analysed at a later date) • 7. IL-1β was measured according to the manufacturer protocol (Perkin Elmer-AlphaLisa IL-1 Kit AL220F-5000) • 8. IC50 data is fitted to a non-linear regression equation (log inhibitor vs response-variable slope 4-parameters)
Background: In Alpha technology, singlet oxygen from a donor bead excites a nearby acceptor bead.

Experiment [2] deals with T1, NLRP3. Description: THP-1 cells pyroptosis assay. It is filed as cell-based. Set-up: Seed THP-1 cells (25,000 cells/well) containing 1.0 μg/ml LPS; host or cells: THP-1 cells, LPS-primed, nigericin-stimulated. As to conditions: LPS 1 μg/ml, nigericin 5 μM, resazurin readout. How it is done:
THP-1 Cells: Culture and Preparation
The cells were routinely passaged and grown to confluency (˜10^6 cells/ml). On the day of the experiment, THP-1 cells were harvested and resuspended into RPMI medium (without FBS). The cells were then counted and viability (>90%) checked by Trypan blue (Sigma #T8154). […] To this diluted cell solution was added LPS (Sigma #L4524) to give a 1 μg/ml Final Assay Concentration (FAC). 40 μl of the final preparation was aliquoted into each well of a 96-well plate. The plate thus prepared was used for compound screening.
THP-1 Cells Pyroptosis Assay
The following method step-by-step assay was followed for compound screening. • 1. […] Incubate for 3 hrs at 37° C. in 5% CO2 • 4. Add 5 μl nigericin (Sigma #N7143) (FAC 5 μM) to all wells • 5. Incubate for 1 hr at 37° C. and 5% CO2 • 6. At the end of the incubation period, spin plates at 300×g for 3 mins and remove supernatant • 7. Then add 50 μl of resazurin (Sigma #R7017) (FAC 100 μM resazurin in RPMI medium without FBS) and incubate plates for a further 1-2 hrs at 37° C. and 5% CO2 • 8. […] IC50 data is fitted to a non-linear regression equation (log inhibitor vs response-variable slope 4-parameters)
In general terms: Alamar Blue is a resazurin reagent that responds to reducing activity.

T1 sequence (Q96P20 whole entry): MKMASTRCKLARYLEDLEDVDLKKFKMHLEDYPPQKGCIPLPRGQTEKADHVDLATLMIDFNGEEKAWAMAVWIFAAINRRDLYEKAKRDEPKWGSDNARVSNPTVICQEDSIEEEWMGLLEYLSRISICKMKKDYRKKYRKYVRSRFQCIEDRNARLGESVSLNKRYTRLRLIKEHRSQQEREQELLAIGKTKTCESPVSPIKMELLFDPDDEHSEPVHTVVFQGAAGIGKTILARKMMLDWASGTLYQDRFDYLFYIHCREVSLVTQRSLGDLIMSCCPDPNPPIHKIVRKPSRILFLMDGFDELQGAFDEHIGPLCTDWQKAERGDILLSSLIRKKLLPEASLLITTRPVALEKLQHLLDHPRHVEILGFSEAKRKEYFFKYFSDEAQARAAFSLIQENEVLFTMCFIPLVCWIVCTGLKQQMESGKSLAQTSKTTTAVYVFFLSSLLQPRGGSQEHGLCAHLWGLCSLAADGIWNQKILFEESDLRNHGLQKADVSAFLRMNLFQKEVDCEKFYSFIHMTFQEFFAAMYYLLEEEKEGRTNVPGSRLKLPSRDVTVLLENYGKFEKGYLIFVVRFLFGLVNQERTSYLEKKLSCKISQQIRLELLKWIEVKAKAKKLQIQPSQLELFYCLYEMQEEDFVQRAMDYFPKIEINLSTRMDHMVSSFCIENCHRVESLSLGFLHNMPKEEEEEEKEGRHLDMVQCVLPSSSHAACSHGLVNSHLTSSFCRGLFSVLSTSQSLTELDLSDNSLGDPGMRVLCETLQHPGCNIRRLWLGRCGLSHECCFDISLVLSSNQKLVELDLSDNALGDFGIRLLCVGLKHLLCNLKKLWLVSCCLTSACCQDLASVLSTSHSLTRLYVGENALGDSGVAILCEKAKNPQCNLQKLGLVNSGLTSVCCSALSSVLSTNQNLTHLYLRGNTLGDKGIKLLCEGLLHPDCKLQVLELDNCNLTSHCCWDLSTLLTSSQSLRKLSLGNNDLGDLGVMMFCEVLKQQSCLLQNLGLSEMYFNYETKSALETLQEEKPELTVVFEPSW

One may read the IC50 as the midpoint of a concentration-inhibition curve. Take `CC(C)c1nc(S(=O)(=O)NC(=O)Nc2c3c(cc4c2CCC4)CCC3)cn1C` [Example 13, N-((1,2,3,5,6,7-Hexahydro-s-indacen-4-yl)carbamoyl)-2-isopropyl-1-methyl-1H-imidazole-4-sulfonamide]: the IC50 on NLRP3 [1] lay within 3200 to 10000 nM; at NLRP3 [2] it was 640 to 2560 nM.

Regarding `CN(C)Cc1c(S(=O)(=O)NC(=O)Nc2c3c(cc4c2CCC4)CCC3)ncn1C` [Example 19], the concentration for half-maximal inhibition (IC50) at NLRP3 [1] lay within 800 to 1600 nM; at NLRP3 [2], 160 to 640 nM.

Consider `CN(C)CCn1cnc(S(=O)(=O)NC(=O)Nc2c3c(cc4c2CCC4)CCC3)c1` [Example 3, 1-(2-(Dimethylamino)ethyl)-N-((1,2,3,5,6,7-hexahydro-s-indacen-4-yl)carbamoyl)-1H-imidazole-4-sulfonamide], for which the concentration for half-maximal inhibition (IC50) at NLRP3 [1] was in the range of 1600 to 3200 nM; at NLRP3 [2], 640 to 2560 nM.

At NLRP3 [2], `Cn1cnc(S(=O)(=O)NC(=O)Nc2c3c(cc4c2CCC4)CCC3)c1` [Example 12, N-((1,2,3,5,6,7-Hexahydro-s-indacen-4-yl)carbamoyl)-1-methyl-1H-imidazole-4-sulfonamide] had an IC50 of 640 to 2560 nM.

For the molecule `CC(C)n1cnc(S(=O)(=O)NC(=O)Nc2c(-c3ccnc(C#N)c3)ccc3c2CCC3)c1` [Example 20], the 50% inhibitory concentration (IC50) at NLRP3 [1] is less than 400 nM; against NLRP3 [2], less than 40 nM.

Take `CC(C)n1cnc(S(=O)(=O)NC(=O)Nc2c3c(cc4c2CCC4)CCC3)c1` [Example 15, N-((1,2,3,5,6,7-Hexahydro-s-indacen-4-yl)carbamoyl)-1-isopropyl-1H-imidazole-4-sulfonamide]: the half-inhibitory concentration (IC50) on NLRP3 [1] fell in the range of 1600 to 3200 nM; on NLRP3 [2] it was 160 to 640 nM.

On to `COc1cc(-c2ccc3c(c2NC(=O)NS(=O)(=O)c2cn(C(C)C)cn2)CCC3)ccn1` [Example 21], for which the IC50 on NLRP3 [1] is 400 to 800 nM; at NLRP3 [2] it was 40 to 160 nM.

With `Cc1nc(S(=O)(=O)NC(=O)Nc2c3c(cc4c2CCC4)CCC3)cn1CC1CCCO1` (stereo not drawn) [Example 16, N-((1,2,3,5,6,7-Hexahydro-s-indacen-4-yl)carbamoyl)-2-methyl-1-((tetrahydrofuran-2-yl)methyl)-1H-imidazole-4-sulfonamide], the IC50 at NLRP3 [1] fell in the range of 800 to 1600 nM; at NLRP3 [2], 160 to 640 nM.

`CC(C)c1ncc(S(=O)(=O)NC(=O)Nc2c3c(cc4c2CCC4)CCC3)n1C` [Example 8, N-((1,2,3,5,6,7-Hexahydro-s-indacen-4-yl)carbamoyl)-2-isopropyl-1-methyl-1H-imidazole-5-sulfonamide]: the IC50 against NLRP3 [2] lay in the range of 160 to 640 nM.

`CC(C)c1cc(F)cc(-c2ccnc(C#N)c2)c1NC(=O)NS(=O)(=O)c1cn(C(C)C)cn1` [Example 4, N-((2-(2-Cyanopyridin-4-yl)-4-fluoro-6-isopropylphenyl)carbamoyl)-1-isopropyl-1H-imidazole-4-sulfonamide]: the concentration for half-maximal inhibition (IC50) at NLRP3 [1] lay in the range of 400 to 800 nM; at NLRP3 [2], 160 to 640 nM.

With `C[C@H](O)Cn1cnc(S(=O)(=O)NC(=O)Nc2c3c(cc4c2CCC4)CCC3)c1` [Example 2, (S)—N-((1,2,3,5,6,7-Hexahydro-s-indacen-4-yl)carbamoyl)-1-(2-hydroxypropyl)-1H-imidazole-4-sulfonamide], the concentration for half-maximal inhibition (IC50) was in the range of 800 to 1600 nM on NLRP3 [1] and 160 to 640 nM on NLRP3 [2].

On to `COc1cc(-c2cc(F)cc(C(C)C)c2NC(=O)NS(=O)(=O)c2cn(C(C)C)cn2)ccn1` [Example 5, N-((4-Fluoro-2-isopropyl-6-(2-methoxypyridin-4-yl)phenyl)carbamoyl)-1-isopropyl-1H-imidazole-4-sulfonamide], for which the 50% inhibitory concentration (IC50) lay in the range of 800 to 1600 nM at NLRP3 [1] and 40 to 160 nM against NLRP3 [2].

In the case of `Cc1nc(S(=O)(=O)NC(=O)Nc2c3c(cc4c2CCC4)CCC3)cn1CCO` [Example 17, N-((1,2,3,5,6,7-Hexahydro-s-indacen-4-yl)carbamoyl)-1-(2-hydroxyethyl)-2-methyl-1H-imidazole-4-sulfonamide], the half-maximal inhibitory concentration (IC50) on NLRP3 [1] lay within 800 to 1600 nM; against NLRP3 [2], 640 to 2560 nM.

Regarding `Cc1nc(S(=O)(=O)NC(=O)Nc2c3c(cc4c2CCC4)CCC3)cn1C(C)C` [Example 7, N-((1,2,3,5,6,7-Hexahydro-s-indacen-4-yl)carbamoyl)-1-isopropyl-2-methyl-1H-imidazole-4-sulfonamide], the half-inhibitory concentration (IC50) on NLRP3 [1] was 1600 to 3200 nM; against NLRP3 [2], 160 to 640 nM.

In turn, `Cn1ccnc1S(=O)(=O)NC(=O)Nc1c2c(cc3c1CCC3)CCC2` [Example 9, N-((1,2,3,5,6,7-Hexahydro-s-indacen-4-yl)carbamoyl)-1-methyl-1H-imidazole-2-sulfonamide] registered a half-inhibitory concentration (IC50) against NLRP3 [2] of 2560 to 10000 nM.

On to `CCn1cc(S(=O)(=O)NC(=O)Nc2c3c(cc4c2CCC4)CCC3)nc1C` [Example 6, 1-Ethyl-N-((1,2,3,5,6,7-hexahydro-s-indacen-4-yl)carbamoyl)-2-methyl-1H-imidazole-4-sulfonamide], for which the half-inhibitory concentration (IC50) fell in the range of 3200 to 10000 nM on NLRP3 [1] and 160 to 640 nM on NLRP3 [2].

Take `CC(C)c1cccc(C(C)C)c1NC(=O)NS(=O)(=O)c1cn(C(C)C)cn1` [Example 14, N-((2,6-Diisopropylphenyl)carbamoyl)-1-isopropyl-1H-imidazole-4-sulfonamide]: the half-maximal inhibitory concentration (IC50) at NLRP3 [2] was in the range of 2560 to 10000 nM.

Consider `C[C@@H](O)Cn1cnc(S(=O)(=O)NC(=O)Nc2c3c(cc4c2CCC4)CCC3)c1` [Example 1, (R)—N-((1,2,3,5,6,7-Hexahydro-s-indacen-4-yl)carbamoyl)-1-(2-hydroxypropyl)-1H-imidazole-4-sulfonamide], for which the IC50 on NLRP3 [1] is 800 to 1600 nM; on NLRP3 [2] it was 160 to 640 nM.

As for `CC(C)c1cc(F)cc(-c2cnn(C)c2)c1NC(=O)NS(=O)(=O)c1cn(C(C)C)cn1` [Example 10, N-((4-Fluoro-2-isopropyl-6-(i-methyl-1H-pyrazol-4-yl)phenyl)carbamoyl)-1-isopropyl-1H-imidazole-4-sulfonamide], at NLRP3 [2], the IC50 lay within 2560 to 10000 nM.

Source of the values: patent US11926600B2, “Sulfonylureas and sulfonylthioureas as NLRP3 inhibitors” (Inflazome Limited, priority 2017, dated 2024).
